Converted amounts (≈) assume the structure as drawn.
Legend:
[1] = tested on: FVO strain of P. falciparum; experiment: Efficacy in P. falciparum-challenged Aotus monkeys; assay type: in vivo, Plasmodium falciparum in Aotus lemurinus lemurinus
P. falciparum TM90C2A = experiment: In vitro antimalarial activity against P. falciparum TM90C2A; assay type: cell-based, Plasmodium falciparum
Procedure: (§1) The in vitro activities of AAQMs against P. falciparum strains W2, D6, TM91C235 and TM90C2A were evaluated using the method of Desjardins et al. as modified by Milhous et al. W2 is chloroquine resistant and mefloquine sensitive, D6 is chloroquine sensitive but naturally less susceptible to mefloquine, TM91C235 is resistant to mefloquine, chloroquine and pyrimethamine as is TM90C2A, however this latter parasite is a two pfmdr1 copy strain. We routinely run mefloquine in this screen as a control to ensure assay validity.

P. falciparum TM91C235 = experiment: In vitro antimalarial activity against P. falciparum TM91C235; assay type: cell-based, Plasmodium falciparum
[2] = tested on: Balb/c 3T3 mouse fibroblast cells; experiment: 3T3 neutral red uptake (NRU) phototoxicity test; assay type: cell-based
Source text: A pharmacophore for phototoxicity was developed to be used as an in silico screening tool to determine the minimum phototoxic concentration for a number of AAQMS (WR069878 and those indicated in Table 5). Minimum phototoxic concentration in a yeast assay for a number of AAQMS, as per Ison et al.; Phototoxicity of Quinoline methanols and other drugs in mice and yeast; J. Invest. Dermatol. (52)193-198 (1969) were used to generate a three-dimensional pharmacophore model using the HypoGen algorithm of the […]® (Accelrys software Inc.) methodology as per Bhattacharjee et al.; A 3D QSAR pharmacophore model and quantum chemical structure—activity analysis of chloroquine(CQ)-resistance reversal; J. Chem Inf. Comput Sci. (42) 1212-1220 (2002), and Dow et al.; as discussed in Antimicrob Agents Chemother. (48)2624-2632 (2004), cited above, both Bhattacharjee et al. and Dow et al, incorporated herein, by reference. The structures of clinically used quinoline methanols were mapped onto the pharmacophores and estimated values for minimum phototoxic concentration were generated. The 3T3 neutral red uptake (NRU) phototoxicity test, conducted by MB Research Laboratories (Spinnerstown, Pa.), was used to identify quinoline methanols (WR069878 and those in Table 5) that have the potential to exert in vivo phototoxicity after systemic application. Briefly, the central 60 wells of two 96-well plates per AAQM were seeded with Balb/c 3T3 mouse fibroblast cells and maintained in culture for 24 hrs. These plates were then pre-incubated with a range of eight different concentrations of test compound (six wells per concentration) for one hour. Next, one plate was treated with a UVA dose of 5 J/cm2 by irradiating for 50 min at 1.7 mW/cm2, whereas the other plate remained non-treated and in the dark. Next, the treatment medium was replaced with culture medium and cell viability was determined after 24 hrs by measuring neutral red uptake for 3 hrs. Finally, the 3T3 NRU Phototox Prediction Software (version 2.0, ZEBET) was used to calculate EC50 values and Photo-Irritant Factors (PIF) for each compound. […]

P. falciparum D6 = experiment: In vitro antimalarial activity against P. falciparum D6; assay type: cell-based, Plasmodium falciparum
Procedure: as §1
The combined effects of azithromycin (as represented by compound 196 on the horizontal axes of FIG. 4 through 6) and WR074086 (as represented by compound 14885 on vertical axes of FIGS. 4 through 6) against three strains of P. falciparum were investigated using isobologram analysis. First, the IC50s of each compound were determined as described above.

P. falciparum W2 = experiment: In vitro antimalarial activity against P. falciparum W2; assay type: cell-based, Plasmodium falciparum
Procedure: as §1

CCCCN(CCCC)CC(O)c1cc(-c2ccc(Cl)cc2)nc2cc(Cl)c(C)cc12 (stereo not drawn) [WR069878] was tested, and the “Outcome in Aotus” value ([1]; 10 mg/kg/day x7 oral, groups of two, Cure = parasite free 90 days, R = average day of recrudescence, Failure = rescued with mefloquine) was “Cures and Cure”, the Outcome ([1]; Aotus, oral, 10 mg/kg/day x 7 days, primary treatment) was “Cure” and the “IC90 against TM90C2A” value (P. falciparum TM90C2A) was 16 ng/mL (≈ 0.0348 µM). For the same compound, the “Activity against P. falciparum TM91C235 (IC50 in ng/ml)” value (P. falciparum TM91C235) was 1.5 ng/mL, the “TM91C235 IC90” value (P. falciparum TM91C235; Table 2) was 3.3 ng/mL and the “IC90 against TM91C235” value (P. falciparum TM91C235; text b26) was 11.7 ng/mL (≈ 0.0255 µM). The “Photo Irritant Factor (PIF)” value [2] was over 100, the “IC90 against D6” value (P. falciparum D6) was 5.3 ng/mL (≈ 0.0115 µM) and the “IC90 against W2” value (P. falciparum W2) was 0.49 ng/mL (≈ 0.00107 µM).
